# Assay results published in BigSolDB 2.1.
smiles,measurement,setting,value
CC(=O)c1ccc(S(C)(=O)=O)cc1,solubility (mole fraction),"in cyclohexane, 278.15 K",0.0049
same,solubility (mole fraction),"in cyclohexane, 283.15 K",0.0056
same,solubility (mole fraction),"in cyclohexane, 288.15 K",0.0065
same,solubility (mole fraction),"in cyclohexane, 293.15 K",0.0079
same,solubility (mole fraction),"in cyclohexane, 298.15 K",0.0091
same,solubility (mole fraction),"in cyclohexane, 303.15 K",0.0109
same,solubility (mole fraction),"in cyclohexane, 308.15 K",0.0129
same,solubility (mole fraction),"in cyclohexane, 313.15 K",0.0154
same,solubility (mole fraction),"in cyclohexane, 318.15 K",0.0182
same,solubility (mole fraction),"in cyclohexane, 323.15 K",0.0217
same,solubility (mole fraction),"in cyclohexane, 328.15 K",0.0255
same,solubility (mole fraction),"in ethanol, 278.15 K",0.0123
same,solubility (mole fraction),"in ethanol, 283.15 K",0.0137
same,solubility (mole fraction),"in ethanol, 288.15 K",0.0154
same,solubility (mole fraction),"in ethanol, 293.15 K",0.0172
same,solubility (mole fraction),"in ethanol, 298.15 K",0.0197
same,solubility (mole fraction),"in ethanol, 303.15 K",0.0221
same,solubility (mole fraction),"in ethanol, 308.15 K",0.0249
same,solubility (mole fraction),"in ethanol, 313.15 K",0.0283
same,solubility (mole fraction),"in ethanol, 318.15 K",0.0325
same,solubility (mole fraction),"in ethanol, 323.15 K",0.0381
same,solubility (mole fraction),"in ethanol, 328.15 K",0.0441
same,solubility (mole fraction),"in ethyl acetate, 278.15 K",0.0253
same,solubility (mole fraction),"in ethyl acetate, 283.15 K",0.027
same,solubility (mole fraction),"in ethyl acetate, 288.15 K",0.0295
same,solubility (mole fraction),"in ethyl acetate, 293.15 K",0.0326
same,solubility (mole fraction),"in ethyl acetate, 298.15 K",0.0361
same,solubility (mole fraction),"in ethyl acetate, 303.15 K",0.0402
same,solubility (mole fraction),"in ethyl acetate, 308.15 K",0.0446
same,solubility (mole fraction),"in ethyl acetate, 313.15 K",0.0501
same,solubility (mole fraction),"in ethyl acetate, 318.15 K",0.0565
same,solubility (mole fraction),"in ethyl acetate, 323.15 K",0.0639
same,solubility (mole fraction),"in ethyl acetate, 328.15 K",0.0745
same,solubility (mole fraction),"in ethylene glycol, 278.15 K",0.0179
same,solubility (mole fraction),"in ethylene glycol, 283.15 K",0.0194
same,solubility (mole fraction),"in ethylene glycol, 288.15 K",0.0211
same,solubility (mole fraction),"in ethylene glycol, 293.15 K",0.0238
same,solubility (mole fraction),"in ethylene glycol, 298.15 K",0.0273
same,solubility (mole fraction),"in ethylene glycol, 303.15 K",0.0307
same,solubility (mole fraction),"in ethylene glycol, 308.15 K",0.035
same,solubility (mole fraction),"in ethylene glycol, 313.15 K",0.0395
same,solubility (mole fraction),"in ethylene glycol, 318.15 K",0.045
same,solubility (mole fraction),"in ethylene glycol, 323.15 K",0.0507
same,solubility (mole fraction),"in ethylene glycol, 328.15 K",0.0597
same,solubility (mole fraction),"in isobutanol, 278.15 K",0.0074
same,solubility (mole fraction),"in isobutanol, 283.15 K",0.0083
same,solubility (mole fraction),"in isobutanol, 288.15 K",0.0094
same,solubility (mole fraction),"in isobutanol, 293.15 K",0.0108
same,solubility (mole fraction),"in isobutanol, 298.15 K",0.0124
same,solubility (mole fraction),"in isobutanol, 303.15 K",0.0142
same,solubility (mole fraction),"in isobutanol, 308.15 K",0.016
same,solubility (mole fraction),"in isobutanol, 313.15 K",0.0186
same,solubility (mole fraction),"in isobutanol, 318.15 K",0.0211
same,solubility (mole fraction),"in isobutanol, 323.15 K",0.0246
same,solubility (mole fraction),"in isobutanol, 328.15 K",0.0284
same,solubility (mole fraction),"in methanol, 278.15 K",0.0161
same,solubility (mole fraction),"in methanol, 283.15 K",0.0173
same,solubility (mole fraction),"in methanol, 288.15 K",0.019
same,solubility (mole fraction),"in methanol, 293.15 K",0.0215
same,solubility (mole fraction),"in methanol, 298.15 K",0.0246
same,solubility (mole fraction),"in methanol, 303.15 K",0.0281
same,solubility (mole fraction),"in methanol, 308.15 K",0.0321
same,solubility (mole fraction),"in methanol, 313.15 K",0.0369
same,solubility (mole fraction),"in methanol, 318.15 K",0.0421
same,solubility (mole fraction),"in methanol, 323.15 K",0.0481
same,solubility (mole fraction),"in methanol, 328.15 K",0.0568
same,solubility (mole fraction),"in n-butanol, 278.15 K",0.0087
same,solubility (mole fraction),"in n-butanol, 283.15 K",0.0096
same,solubility (mole fraction),"in n-butanol, 288.15 K",0.0111
same,solubility (mole fraction),"in n-butanol, 293.15 K",0.0125
same,solubility (mole fraction),"in n-butanol, 298.15 K",0.014
same,solubility (mole fraction),"in n-butanol, 303.15 K",0.016
same,solubility (mole fraction),"in n-butanol, 308.15 K",0.018
same,solubility (mole fraction),"in n-butanol, 313.15 K",0.0205
same,solubility (mole fraction),"in n-butanol, 318.15 K",0.0234
same,solubility (mole fraction),"in n-butanol, 323.15 K",0.0271
same,solubility (mole fraction),"in n-butanol, 328.15 K",0.0315
same,solubility (mole fraction),"in n-hexane, 278.15 K",0.003
same,solubility (mole fraction),"in n-hexane, 283.15 K",0.0038
same,solubility (mole fraction),"in n-hexane, 288.15 K",0.0049
same,solubility (mole fraction),"in n-hexane, 293.15 K",0.0062
same,solubility (mole fraction),"in n-hexane, 298.15 K",0.0077
same,solubility (mole fraction),"in n-hexane, 303.15 K",0.0099
same,solubility (mole fraction),"in n-hexane, 308.15 K",0.0121
same,solubility (mole fraction),"in n-hexane, 313.15 K",0.0146
same,solubility (mole fraction),"in n-hexane, 318.15 K",0.0171
same,solubility (mole fraction),"in n-hexane, 323.15 K",0.0204
same,solubility (mole fraction),"in n-hexane, 328.15 K",0.0241
same,solubility (mole fraction),"in n-propanol, 278.15 K",0.0104
same,solubility (mole fraction),"in n-propanol, 283.15 K",0.0114
same,solubility (mole fraction),"in n-propanol, 288.15 K",0.0129
same,solubility (mole fraction),"in n-propanol, 293.15 K",0.0144
same,solubility (mole fraction),"in n-propanol, 298.15 K",0.0162
same,solubility (mole fraction),"in n-propanol, 303.15 K",0.0185
same,solubility (mole fraction),"in n-propanol, 308.15 K",0.021
same,solubility (mole fraction),"in n-propanol, 313.15 K",0.0241
same,solubility (mole fraction),"in n-propanol, 318.15 K",0.0273
same,solubility (mole fraction),"in n-propanol, 323.15 K",0.0318
same,solubility (mole fraction),"in n-propanol, 328.15 K",0.0365
